According to ChEMBL document CHEMBL1201862, “PubChem BioAssay data set” (2004):
Calls of active or inactive are those of the source.

Tests used:
[1] = target: T1, RNA-binding protein pos-1 (Caenorhabditis elegans, UniProt G5EF15); assay: disruptors of C. elegans POS-1 RNA interaction – biochemical, fluorescence polarization, dose response (AID 1964);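 further: purified POS-1 fused to maltose binding protein made in E. coli; potency of compounds blocking POS-1 binding to fluorescent RNA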
T1 sequence (G5EF15 whole entry): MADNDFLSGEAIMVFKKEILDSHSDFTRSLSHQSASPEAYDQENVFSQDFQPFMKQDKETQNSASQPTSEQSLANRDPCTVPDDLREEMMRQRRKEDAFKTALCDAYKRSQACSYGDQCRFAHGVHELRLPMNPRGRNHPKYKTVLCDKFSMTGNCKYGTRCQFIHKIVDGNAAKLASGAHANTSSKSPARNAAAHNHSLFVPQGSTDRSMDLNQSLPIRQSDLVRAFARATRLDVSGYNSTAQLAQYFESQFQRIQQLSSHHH

[2] = target: T2, Zinc finger protein mex-5 (Caenorhabditis elegans, UniProt Q9XUB2); assay: potency of MEX-5 RNA-binding blockers – biochemical, C. elegans, fluorescence polarization, dose response (AID 1960)
T2 sequence (Q9XUB2 whole entry): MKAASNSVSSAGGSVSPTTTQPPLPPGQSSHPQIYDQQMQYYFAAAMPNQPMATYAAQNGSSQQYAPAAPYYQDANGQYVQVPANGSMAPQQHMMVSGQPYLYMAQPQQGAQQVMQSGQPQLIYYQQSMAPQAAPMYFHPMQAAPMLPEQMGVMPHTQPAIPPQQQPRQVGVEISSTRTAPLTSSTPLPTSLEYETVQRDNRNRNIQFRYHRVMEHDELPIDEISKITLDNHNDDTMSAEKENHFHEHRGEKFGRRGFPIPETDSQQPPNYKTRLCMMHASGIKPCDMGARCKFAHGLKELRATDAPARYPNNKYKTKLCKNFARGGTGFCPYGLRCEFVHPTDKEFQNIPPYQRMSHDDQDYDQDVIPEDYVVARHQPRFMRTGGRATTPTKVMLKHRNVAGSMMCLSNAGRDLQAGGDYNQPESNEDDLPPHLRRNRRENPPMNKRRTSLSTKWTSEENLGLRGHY

[3] = target: Luciferin 4-monooxygenase (Photinus pyralis, UniProt P08659); assay: inhibition of purified Photinus pyralis luciferase – biochemical, luminescence, dose response (AID 1891)
[4] = Luminescence Cell-Based Dose Confirmation HTS to Identify Inhibitors of Platelet Dense Granule Release. [Related pubchem assays: 1663 (Primary HTS), 1678 (Summary of Project)]; format: functional
Leucine aminopeptidase = target: T3, Leucine aminopeptidase (Plasmodium falciparum 3D7, UniProt Q8IL11); assay: P. falciparum M17LAP inhibitors, primary screen, biochemical, fluorogenic H-Leu-NHMec substrate, 1536-well (AID 1619); format: functional
T3 sequence (Q8IL11 whole entry): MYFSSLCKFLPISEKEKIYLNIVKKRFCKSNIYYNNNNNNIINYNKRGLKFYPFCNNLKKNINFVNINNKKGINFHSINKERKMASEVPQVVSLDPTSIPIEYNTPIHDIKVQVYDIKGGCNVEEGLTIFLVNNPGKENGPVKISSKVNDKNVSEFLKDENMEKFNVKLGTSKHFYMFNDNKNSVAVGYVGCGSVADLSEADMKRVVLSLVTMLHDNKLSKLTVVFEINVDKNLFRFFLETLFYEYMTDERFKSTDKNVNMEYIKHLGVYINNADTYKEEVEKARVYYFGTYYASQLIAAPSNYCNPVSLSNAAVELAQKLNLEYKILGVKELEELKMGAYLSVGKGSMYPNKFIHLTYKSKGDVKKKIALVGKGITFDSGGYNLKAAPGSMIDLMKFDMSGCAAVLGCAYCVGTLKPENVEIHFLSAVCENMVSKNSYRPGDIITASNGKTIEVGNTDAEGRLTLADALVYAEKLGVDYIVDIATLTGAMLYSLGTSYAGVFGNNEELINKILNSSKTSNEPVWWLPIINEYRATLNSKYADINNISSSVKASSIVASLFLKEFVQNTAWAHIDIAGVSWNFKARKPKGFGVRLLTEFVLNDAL

H4 = assay: Luminescence Cell-Based Dose Response HTS to Identify Activators of 5'UTR Stem-Loop Driven Prion Protein mRNA Translation in H4 Neuroglioblastoma Cells. [Related pubchem assays: 1829 (Project Summary), 1814 (Primary HTS)]; format: functional; conditions: Homo sapiens
[5] = Luminescence Cell-Based Dose Confirmation HTS to Identify Activators of 5'UTR Stem-Loop Driven Alpha-Synuclein mRNA Translation in H4 Neuroglioblastoma Cells. [Related pubchem assays: 1829 (Project Summary), 1814 (Primary HTS)]; format: functional
[6] = Luminescence Cell-Based Dose Response HTS to Identify Activators of Luciferase Translation or Activity in H4 […] Cells. [Related pubchem assays: 1829 (Project Summary), 1814 (Primary HTS)]; format: functional
[7] = target: T4, Replicative DNA helicase DnaB (Mycobacterium tuberculosis, UniProt P9WMR3); assay: DnaB intein splicing inhibitors, dose response, biochemical, cell-free fluorescence (AID 449749); format: functional
T4 sequence (P9WMR3 whole entry): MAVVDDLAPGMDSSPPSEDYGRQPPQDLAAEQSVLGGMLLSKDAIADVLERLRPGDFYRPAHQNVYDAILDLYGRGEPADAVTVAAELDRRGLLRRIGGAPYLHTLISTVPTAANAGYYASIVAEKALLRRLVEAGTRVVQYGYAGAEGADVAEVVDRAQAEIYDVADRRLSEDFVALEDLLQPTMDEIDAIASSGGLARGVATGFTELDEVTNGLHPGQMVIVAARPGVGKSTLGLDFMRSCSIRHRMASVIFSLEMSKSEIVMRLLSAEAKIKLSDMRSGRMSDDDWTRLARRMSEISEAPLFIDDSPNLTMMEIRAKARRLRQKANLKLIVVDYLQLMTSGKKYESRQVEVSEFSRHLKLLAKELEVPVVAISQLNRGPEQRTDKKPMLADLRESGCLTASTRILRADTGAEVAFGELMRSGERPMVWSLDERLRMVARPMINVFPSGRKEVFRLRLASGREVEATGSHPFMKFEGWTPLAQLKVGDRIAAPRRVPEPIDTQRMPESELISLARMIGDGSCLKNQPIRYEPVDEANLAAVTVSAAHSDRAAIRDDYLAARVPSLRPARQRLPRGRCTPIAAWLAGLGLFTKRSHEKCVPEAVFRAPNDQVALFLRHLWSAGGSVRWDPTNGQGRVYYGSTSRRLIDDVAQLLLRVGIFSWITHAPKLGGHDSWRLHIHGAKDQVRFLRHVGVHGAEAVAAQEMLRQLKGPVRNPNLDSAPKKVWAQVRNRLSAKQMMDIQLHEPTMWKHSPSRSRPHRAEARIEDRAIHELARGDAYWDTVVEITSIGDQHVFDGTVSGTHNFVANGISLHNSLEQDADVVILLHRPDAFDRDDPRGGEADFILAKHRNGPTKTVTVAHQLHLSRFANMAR

Protein RecA = target: T5, Protein RecA (Mycobacterium tuberculosis, UniProt P9WHJ3); assay: Fluorescence Cell-Free Homogeneous Dose Retest to Identify Inhibitors of RecA-Intein Splicing Activity. [Related pubchem assays (depositor defined):AID2097, AID2223, AID489010, AID492950]; format: functional
T5 sequence (P9WHJ3 whole entry): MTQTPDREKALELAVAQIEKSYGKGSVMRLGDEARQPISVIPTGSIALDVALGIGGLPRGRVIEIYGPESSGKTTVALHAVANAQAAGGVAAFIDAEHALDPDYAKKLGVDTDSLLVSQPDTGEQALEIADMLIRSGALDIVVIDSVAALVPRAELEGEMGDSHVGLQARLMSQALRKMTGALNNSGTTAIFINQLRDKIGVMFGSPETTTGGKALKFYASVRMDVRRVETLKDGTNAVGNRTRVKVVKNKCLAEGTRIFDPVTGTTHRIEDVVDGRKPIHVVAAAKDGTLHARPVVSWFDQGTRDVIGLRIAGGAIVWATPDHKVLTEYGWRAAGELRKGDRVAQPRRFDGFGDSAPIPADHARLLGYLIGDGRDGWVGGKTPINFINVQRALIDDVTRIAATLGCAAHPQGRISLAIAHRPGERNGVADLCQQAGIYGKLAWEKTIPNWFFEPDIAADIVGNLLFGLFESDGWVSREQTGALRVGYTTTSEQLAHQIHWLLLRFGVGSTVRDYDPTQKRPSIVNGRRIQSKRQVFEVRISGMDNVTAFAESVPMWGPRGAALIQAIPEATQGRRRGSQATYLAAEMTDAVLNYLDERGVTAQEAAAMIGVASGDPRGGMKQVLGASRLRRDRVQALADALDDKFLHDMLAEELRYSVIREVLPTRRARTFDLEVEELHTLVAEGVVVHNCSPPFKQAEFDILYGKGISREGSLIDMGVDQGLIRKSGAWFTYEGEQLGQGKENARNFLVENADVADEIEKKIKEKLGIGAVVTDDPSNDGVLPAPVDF

Cytochrome P450 1A2 = target: T6, Cytochrome P450 1A2 (Homo sapiens, UniProt P05177);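 further: PubChem cytochrome P450 panel assay, CYP1A2 panel member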
T6 sequence (P05177 whole entry): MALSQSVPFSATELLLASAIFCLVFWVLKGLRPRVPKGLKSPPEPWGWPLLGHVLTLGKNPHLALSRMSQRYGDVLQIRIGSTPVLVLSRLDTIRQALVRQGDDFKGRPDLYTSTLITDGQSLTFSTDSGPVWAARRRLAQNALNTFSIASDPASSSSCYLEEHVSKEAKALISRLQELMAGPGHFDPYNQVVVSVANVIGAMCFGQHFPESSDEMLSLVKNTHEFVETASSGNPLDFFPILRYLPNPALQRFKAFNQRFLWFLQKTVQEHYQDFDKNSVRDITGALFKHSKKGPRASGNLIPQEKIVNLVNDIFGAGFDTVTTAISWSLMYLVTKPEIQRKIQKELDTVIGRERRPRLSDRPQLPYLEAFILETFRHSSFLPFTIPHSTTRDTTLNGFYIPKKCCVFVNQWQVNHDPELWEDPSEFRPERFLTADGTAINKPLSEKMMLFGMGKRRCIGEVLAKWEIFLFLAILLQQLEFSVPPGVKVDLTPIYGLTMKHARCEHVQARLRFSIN

Cytochrome P450 2C19 = Cytochrome P450 2C19 (Homo sapiens, UniProt P33261); assay: Cytochrome panel assay with activity outcomes. Panel member name: p450-cyp2c19 Compounds with AC50 equal or less than 10 uM are considered active; format: functional; conditions: read-out: AC50
Sequence of Cytochrome P450 2C19 (P33261 whole entry): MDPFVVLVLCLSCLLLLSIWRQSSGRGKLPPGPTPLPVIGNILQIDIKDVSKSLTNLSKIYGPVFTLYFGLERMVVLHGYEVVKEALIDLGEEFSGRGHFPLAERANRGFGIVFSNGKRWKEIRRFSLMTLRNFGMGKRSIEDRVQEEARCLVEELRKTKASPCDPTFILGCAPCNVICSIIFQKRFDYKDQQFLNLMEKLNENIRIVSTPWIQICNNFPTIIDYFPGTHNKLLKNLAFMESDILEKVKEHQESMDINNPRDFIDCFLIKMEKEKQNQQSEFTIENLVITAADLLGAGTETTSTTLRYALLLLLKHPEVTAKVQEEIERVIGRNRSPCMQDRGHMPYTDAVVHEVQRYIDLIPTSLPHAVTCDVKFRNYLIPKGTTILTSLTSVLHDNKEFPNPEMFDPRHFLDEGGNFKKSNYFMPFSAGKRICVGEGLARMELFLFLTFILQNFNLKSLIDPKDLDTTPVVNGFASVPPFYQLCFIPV

Sequence of Luciferin 4-monooxygenase (P08659 whole entry): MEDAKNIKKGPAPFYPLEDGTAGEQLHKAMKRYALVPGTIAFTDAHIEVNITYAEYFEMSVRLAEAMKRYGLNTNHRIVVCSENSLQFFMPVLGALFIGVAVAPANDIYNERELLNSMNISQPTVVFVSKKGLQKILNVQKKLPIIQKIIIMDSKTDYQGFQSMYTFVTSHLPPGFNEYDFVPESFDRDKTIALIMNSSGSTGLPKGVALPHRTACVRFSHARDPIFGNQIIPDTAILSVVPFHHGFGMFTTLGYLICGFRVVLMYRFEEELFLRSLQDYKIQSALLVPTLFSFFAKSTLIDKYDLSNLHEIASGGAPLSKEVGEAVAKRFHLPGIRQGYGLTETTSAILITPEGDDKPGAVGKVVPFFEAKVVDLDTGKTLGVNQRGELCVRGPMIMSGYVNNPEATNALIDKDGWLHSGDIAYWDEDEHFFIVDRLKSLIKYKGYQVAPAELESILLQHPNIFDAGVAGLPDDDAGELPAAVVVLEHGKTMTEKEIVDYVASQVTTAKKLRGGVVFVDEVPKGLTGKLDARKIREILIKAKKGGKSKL

For `Cc1cccc(C(=O)NCCCNC(=O)c2cccc(C)c2)c1`, the EC50 [1] was > 300 µM (not active) and the EC50 [2] was > 300 µM (not active).
For `Cc1noc(C)c1S(=O)(=O)NC1CCN(Cc2ccccc2)CC1`, the EC50 [1] was 49.2 µM (active) and the EC50 [2] was 35.3 µM (active).
In the case of `CSc1nnc(N2C(=O)C(O)=C(C(=O)c3ccco3)C2c2cccc(Cl)c2)s1` (configuration not stated), the EC50 [3] is reported as > 112 µM (not active), the EC50 [4] is reported as > 112 µM (not active) and the EC50 [1] is reported as 31.3 µM (active). The EC50 [2] was 14.3 µM (active).
For `COc1ccc2cc(/C=C3\SC(=S)NC3=O)c(N3CCOCC3)nc2c1`, the IC50 (Leucine aminopeptidase) was 1.76 µM (active).
For `CN(C(=O)c1ccc(OC2CCN(CCc3ccccc3)CC2)cc1)C1CCCCC1`, the EC50 (H4) was > 120 µM (not active), the EC50 [5] was 13.3 µM (active) and the EC50 [6] was 18.5 µM (active).
For `Cn1c(CCNC(=O)c2cccs2)nnc1SCC(=O)Nc1nc(-c2ccccc2)cs1`, the EC50 (H4) was 27.3 µM (active), the EC50 [5] was > 120 µM (not active) and the EC50 [6] was 24.5 µM (active).
With `COC(=O)c1c(NC(=O)/C=C/C(=O)O)sc(C)c1-c1ccc(C)c(C)c1` the IC50 (Leucine aminopeptidase) was 35.6 µM (active), the AC50 [7] was 15.1 µM (active) and the EC50 (Protein RecA) was 5.69 µM (active).
In the case of `CC(/C=C1\N=C(SCc2ccccc2Cl)SC1=O)=C\c1ccccc1`, the AC50 (Cytochrome P450 1A2) is reported as 4.47 µM (inconclusive), the AC50 (Cytochrome P450 2C19) is reported as 7.08 µM (inconclusive) and the EC50 [1] is reported as > 300 µM (not active). The EC50 [2] was > 300 µM (not active).
For `O=C(Nc1ccccc1)NC(Cc1ccc(O)cc1)C(=O)O` (configuration not stated), the IC50 (Leucine aminopeptidase) was 34.7 µM (active).
With `N#CC1=C(N)OC2=C(C(=O)CCC2)[C@]12C(=O)N(CC(N)=O)c1ccccc12` the EC50 [1] was > 300 µM (not active) and the EC50 [2] was > 300 µM (not active).
In the case of `COc1ccc2[nH]cc(C(=O)CN3CCC(C)CC3)c2c1`, the EC50 (H4) is reported as 14.4 µM (active), the EC50 [5] is reported as 5.71 µM (active) and the EC50 [6] is reported as 17.6 µM (active).
In the case of `Cc1ccc(-c2nc(N3CCOCC3)s[n+]2-c2ccccc2)cc1.[O-][Cl+3]([O-])([O-])[O-]`, the EC50 (H4) is reported as 31.5 µM (active), the EC50 [5] is reported as 7.82 µM (active) and the EC50 [6] is reported as 7.52 µM (active).
For `Cc1ccc2nc(NC(=O)COC(=O)c3ccncc3)sc2c1`, the EC50 (H4) was 11.4 µM (active), the EC50 [5] was > 120 µM (not active) and the EC50 [6] was > 120 µM (not active).
With `O=C(O)CCc1nnc(SCC(=O)Nc2ccc(Cl)c(C(F)(F)F)c2)nc1O` the IC50 (Leucine aminopeptidase) was 2.82 µM (active).
With `O=C(Nc1c(C(=O)Nc2ccc3c(c2)OCCO3)cnn1-c1ccccc1Cl)c1ccco1` the EC50 (H4) was > 120 µM (not active), the EC50 [5] was 20 µM (active) and the EC50 [6] was 20.5 µM (active).
In the case of `N#Cc1c(/N=C/C2C(=O)NC(=S)NC2=O)sc2c1CCCC2`, the IC50 (Leucine aminopeptidase) is reported as 110 µM (active).
For `C/N=C(\c1ccc(C)cc1)n1c(=S)nc(-c2ccc(C)cc2)n(C)c1=S`, the EC50 (H4) was 21.3 µM (active), the EC50 [5] was > 120 µM (not active) and the EC50 [6] was 15.4 µM (active).
